Experimental data published in patent US20240124450A1, “Novel SIK Inhibitors” (Pfizer Inc., priority 2022, published 2024).
Read-outs that look alike come from different tables or passages of the source.

Key:
SIK1 = SIK1 (Homo sapiens (Human), UniProt P57059); test: Pan SIK MS IC50 enzyme assay (SIK1); type: biochemical; details: 1 mM ATP, substrate peptide AQT0868, LCMS/MS detection
Experimental: (§1) Enzyme Assay: Pan SIK MS IC50 Assay
(§2) Salt Induced Kinase (SIK) activity is determined by measuring the effect of a test agent on the activity of the appropriate SIK enzyme to phosphorylate its corresponding substrate. […] The phosphorylated substrate product resulting from the kinase reaction is detected by LCMS/MS, and the area under the peak curve correlates with kinase activity. […] The plates are spun at 1000 rpm for 30 seconds to ensure compounds are at the bottom of the well before removing foil covers. 0.15 μL HPE (assay std) and ZPE (DMSO) are added to the ARP using an HP D300 dispenser. Plates are spun again at 1000 rpm for 30 seconds. […] Plates are spun at 1000 rpm for 30 seconds. Plates are then sealed and incubated at RT for 10 minutes. Following incubation, 5 μL of 5× peptide reagent is added with a Multidrop Combi and designated small volume cassette to initiate the kinase reaction. Plates are spun at 1000 rpm for 30 seconds. Plates are then sealed and incubated at RT for 90 minutes. The assay is stopped by the addition of 5 μl of 120 mM EDTA added with a Multidrop Combi and designated small volume cassette (20 mM final concentration). Plates are spun at 1000 rpm for 30 seconds. 10 μl of the final reaction mix from each of the three individual enzyme plates are transferred by a Platemate Plus to the same corresponding 96 well deepwell plate containing 70 μl Water/Methanol (85/15%) for multiplex MS detection ([…]). Using Activity Base (ABase), an idbs data analysis software tool, the reported area ratio unit data is associated to compound, batch and dose information, the data is evaluated for quality, and the percent inhibition of each well is calculated. The data from each Max effect/HPE and Min effect/ZPE control wells are assessed, and outliers are excluded from all further calculations. The mean and standard deviation of the HPE and ZPE are then calculated for each plate, along with the Z Prime. The compound data is converted into % effect, using the average ZPE and HPE controls as 0% and 100% activity, respectively.

SIK3 = SIK3 (Homo sapiens (Human), UniProt Q9Y2K2); test: Pan SIK MS IC50 enzyme assay (SIK3); type: biochemical; details: 1 mM ATP, substrate peptide AQT0508, LCMS/MS detection
Experimental: as §1, §2

[1] = test system: TNFα release from human monocyte derived macrophages stimulated with LPS; test: SIK macrophage cytokine assay, inhibition of TNFα release; type: cell-based; details: 1 ng/mL LPS, 4 hours, HTRF, read-out: TNFa IC50
Experimental: (§3) Cytokine Assays: SIK Macrophage Assay Cytokine activity is determined by measuring the effect of a test agent on the inhibitory release of the cytokine TNFα and the increasing release of the cytokine IL10 from human monocyte derived macrophages (human macrophages) stimulated with lipopolysaccharide (LPS). At the time of assay, human macrophages (CGPS group Pfizer Groton, CT) are removed from cryopreservation, thawed quickly at 37° C., diluted in thaw medium (OptiMEM—Gibco medium, 10% heat inactivated fetal bovine serum (HIFBS)), and then centrifuged at 200×g for 10 minutes. […] After ˜60 minutes in an incubator at 37° C. in a humidified environment in 5% carbon dioxide the cells are stimulated by the addition of 5 μL of LPS (10 ng/mL; Sigma) and the assay plate is returned to an incubator at 37° C. in a humidified environment in 5% carbon dioxide for 4 hours. […] The final concentration of DMSO in the assay is approximately 0.1%. After 4 hours, the assay plate is removed from the incubator and centrifuged at 1500 rpm for 10 minutes. A portion of the resulting cell supernatant is then used to determine the amount of IL-10 and TNFα in each well. Cytokine measurements are made using human IL-10 and TNFα HTRF assay kits (Perkin Elmer) following the manufacturer's assay protocol.

[2] = test system: IL10 release from human monocyte derived macrophages stimulated with LPS; test: SIK macrophage cytokine assay, increase of IL10 release; type: cell-based; details: 1 ng/mL LPS, 4 hours, HTRF
Experimental: as §3

SIK2 = SIK2 (Homo sapiens (Human), UniProt Q9H0K1); test: Pan SIK MS IC50 enzyme assay (SIK2); type: biochemical; details: 1 mM ATP, substrate peptide AQT0252, LCMS/MS detection
Experimental: as §1, §2

Chain of SIK3 (Q9Y2K2 whole entry, species assumed): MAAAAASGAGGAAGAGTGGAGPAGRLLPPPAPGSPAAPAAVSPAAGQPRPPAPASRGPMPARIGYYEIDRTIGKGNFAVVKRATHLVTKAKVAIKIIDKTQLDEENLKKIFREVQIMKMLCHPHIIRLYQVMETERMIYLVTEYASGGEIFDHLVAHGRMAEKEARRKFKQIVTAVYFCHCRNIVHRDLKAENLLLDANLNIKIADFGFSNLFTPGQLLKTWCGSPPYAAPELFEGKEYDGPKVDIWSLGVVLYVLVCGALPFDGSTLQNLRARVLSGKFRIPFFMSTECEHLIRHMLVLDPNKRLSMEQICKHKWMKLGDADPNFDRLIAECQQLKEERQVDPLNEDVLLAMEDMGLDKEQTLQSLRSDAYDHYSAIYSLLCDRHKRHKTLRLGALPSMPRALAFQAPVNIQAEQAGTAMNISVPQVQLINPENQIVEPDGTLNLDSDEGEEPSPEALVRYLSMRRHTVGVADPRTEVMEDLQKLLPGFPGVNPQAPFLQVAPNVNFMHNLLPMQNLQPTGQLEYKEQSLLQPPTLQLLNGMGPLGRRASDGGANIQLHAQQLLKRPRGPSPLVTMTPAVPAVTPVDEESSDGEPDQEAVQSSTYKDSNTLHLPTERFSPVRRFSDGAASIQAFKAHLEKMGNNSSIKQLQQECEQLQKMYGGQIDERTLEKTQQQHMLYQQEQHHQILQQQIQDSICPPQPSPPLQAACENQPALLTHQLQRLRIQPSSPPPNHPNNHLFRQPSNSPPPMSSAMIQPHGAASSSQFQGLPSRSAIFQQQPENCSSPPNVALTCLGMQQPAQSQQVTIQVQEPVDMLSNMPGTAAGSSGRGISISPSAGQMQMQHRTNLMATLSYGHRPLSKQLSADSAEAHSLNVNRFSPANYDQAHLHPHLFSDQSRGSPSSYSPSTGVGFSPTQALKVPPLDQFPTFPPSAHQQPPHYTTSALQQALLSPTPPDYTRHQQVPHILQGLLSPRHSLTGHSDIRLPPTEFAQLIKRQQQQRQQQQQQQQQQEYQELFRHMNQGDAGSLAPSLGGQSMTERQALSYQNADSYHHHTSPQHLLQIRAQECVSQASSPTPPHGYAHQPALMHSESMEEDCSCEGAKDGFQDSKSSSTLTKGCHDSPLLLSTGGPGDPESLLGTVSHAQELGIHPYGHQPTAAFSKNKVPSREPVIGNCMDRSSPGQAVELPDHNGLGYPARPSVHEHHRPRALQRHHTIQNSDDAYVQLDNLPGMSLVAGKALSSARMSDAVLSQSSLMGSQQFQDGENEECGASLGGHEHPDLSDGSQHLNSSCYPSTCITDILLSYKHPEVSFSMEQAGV
Chain of SIK1 (P57059 whole entry, species assumed): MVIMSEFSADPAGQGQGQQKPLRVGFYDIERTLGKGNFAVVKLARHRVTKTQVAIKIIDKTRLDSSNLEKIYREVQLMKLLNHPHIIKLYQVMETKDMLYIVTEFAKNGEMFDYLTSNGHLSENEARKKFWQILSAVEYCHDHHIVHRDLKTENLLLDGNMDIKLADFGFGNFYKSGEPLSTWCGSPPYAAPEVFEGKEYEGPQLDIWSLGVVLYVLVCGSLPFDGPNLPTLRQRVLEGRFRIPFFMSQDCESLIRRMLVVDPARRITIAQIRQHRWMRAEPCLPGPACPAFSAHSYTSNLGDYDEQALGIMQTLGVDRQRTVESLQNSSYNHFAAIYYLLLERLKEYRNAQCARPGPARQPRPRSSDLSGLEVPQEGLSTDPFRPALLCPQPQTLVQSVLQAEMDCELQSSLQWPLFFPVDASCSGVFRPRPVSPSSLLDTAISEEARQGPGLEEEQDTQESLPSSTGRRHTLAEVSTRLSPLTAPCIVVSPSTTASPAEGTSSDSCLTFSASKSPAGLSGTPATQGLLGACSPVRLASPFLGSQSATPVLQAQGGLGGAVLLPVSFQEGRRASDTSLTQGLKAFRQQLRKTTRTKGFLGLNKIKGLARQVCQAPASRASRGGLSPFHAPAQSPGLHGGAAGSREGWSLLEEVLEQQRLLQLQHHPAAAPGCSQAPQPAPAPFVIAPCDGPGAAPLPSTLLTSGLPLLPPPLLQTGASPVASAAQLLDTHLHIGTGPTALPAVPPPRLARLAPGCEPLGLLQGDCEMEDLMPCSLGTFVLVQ
Chain of SIK2 (Q9H0K1 whole entry, species assumed): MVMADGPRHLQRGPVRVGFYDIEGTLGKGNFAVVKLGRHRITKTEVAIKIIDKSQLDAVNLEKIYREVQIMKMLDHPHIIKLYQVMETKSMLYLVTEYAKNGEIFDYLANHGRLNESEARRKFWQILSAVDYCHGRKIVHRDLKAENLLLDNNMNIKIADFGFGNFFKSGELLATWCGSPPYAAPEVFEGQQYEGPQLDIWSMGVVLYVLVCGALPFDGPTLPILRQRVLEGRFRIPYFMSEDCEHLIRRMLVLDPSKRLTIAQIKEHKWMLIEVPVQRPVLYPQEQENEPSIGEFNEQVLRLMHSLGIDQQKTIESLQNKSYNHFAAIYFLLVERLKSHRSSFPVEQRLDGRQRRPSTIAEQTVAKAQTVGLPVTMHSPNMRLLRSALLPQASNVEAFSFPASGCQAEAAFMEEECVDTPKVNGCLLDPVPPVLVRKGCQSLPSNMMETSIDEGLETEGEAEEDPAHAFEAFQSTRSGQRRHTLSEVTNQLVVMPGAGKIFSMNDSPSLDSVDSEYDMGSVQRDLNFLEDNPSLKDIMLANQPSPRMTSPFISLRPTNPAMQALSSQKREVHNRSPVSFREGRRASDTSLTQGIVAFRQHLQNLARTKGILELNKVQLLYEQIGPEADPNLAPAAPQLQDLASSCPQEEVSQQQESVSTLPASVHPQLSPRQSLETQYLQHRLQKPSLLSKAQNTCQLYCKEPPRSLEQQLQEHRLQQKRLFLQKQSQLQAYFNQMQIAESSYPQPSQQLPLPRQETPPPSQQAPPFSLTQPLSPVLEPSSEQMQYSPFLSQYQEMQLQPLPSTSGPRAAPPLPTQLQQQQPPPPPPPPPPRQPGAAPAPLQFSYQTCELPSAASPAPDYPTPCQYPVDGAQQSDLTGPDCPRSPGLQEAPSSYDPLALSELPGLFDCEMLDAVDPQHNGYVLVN

| Compound | IC50 (SIK1) [nM] | IC50 (SIK3) [nM] | IC50 ([1]; Macrophage) [nM] | EC50 ([2]; Macrophage) [nM] | IC50 (SIK2) [nM] | IC50 [1] [nM] | EC50 [2] [nM] |
| --- | --- | --- | --- | --- | --- | --- | --- |
| CSc1cc(-c2cnc3cccc(C#N)n23)cc(OCC2(N)CCSC2)c1C#N (racemic) [Example 27, (R)-3-(3-((3-aminotetrahydrothiophen-3-yl)methoxy)-4-cyano-5-(methylthio)phenyl)imidazo[1,2-a]pyridine-5-carbonitrile and (6)-3-(3-(((3-aminotetrahydrothiophen-3-yl)methoxy)-4-cyano-5-(methylthio)phenyl)imidazo[1,2-a]pyridine-5-carbonitrile] | 3.3 | 5.1 | 25.8 | 142 | 2.5 |  |  |
| CC[C@H]1CCC[C@]1(N)COc1cc(-c2cnc3cccc(OC)n23)cc(OC)c1C#N [Example 2B, 2-(((1R,2S)-1-Amino-2-ethylcyclopentyl)methoxy)-6-methoxy-4-(5-methoxyimidazo[1,2-a]pyridin-3-yl)benzonitrile] | 12 | 71.3 | 271 | 570 | 11.1 |  |  |
| CCOC(=O)c1cc(C#N)n2c(-c3cc(OCC4(N)CCCC4)c(C#N)c(SC)c3)cnc2c1 [Example 38, Ethyl 3-(3-((1-aminocyclopentyl)methoxy)-4-cyano-5-(methylthio)phenyl)-5-cyanoimidazo[1,2-a]pyridine-7-carboxylate] | 1.5 | 1.8 | 20.1 | 51 | 1 |  |  |
| CCC1CCC(N)(COc2cc(-c3cnc4cccc(OC)n34)cc(OC)c2C#N)C1 (stereo not shown) [Example 3, 2-((1-Amino-3-ethylcyclopentyl)methoxy)-6-methoxy-4-(5-methoxyimidazo[1,2-a]pyridin-3-yl)benzonitrile] | 0.8 | 4.7 | 29.7 | 92 | 2.1 |  |  |
| COc1cccc2ncc(-c3cc(OCC4(N)CCCC4)c(C#N)c(SC)c3)n12 [Example 1, 2-((1-Aminocyclopentyl)methoxy)-4-(5-methoxyimidazo[1,2-a]pyridin-3-yl)-6-(methylthio)benzonitrile] | 2.5 | 7.5 | 26.4 | 109 | 2.2 |  |  |
| CSc1cc(-c2cnc3cccc(C#N)n23)cc(OC[C@@]2(N)CCC(F)(F)C2)c1C#N (mixture of isomers) [Example 12, (R)-3-(3-((1-Amino-3,3-difluorocyclopentyl)methoxy)-4-cyano-5-(methylthio)phenyl)imidazo[1,2-a]pyridine-5-carbonitrile and (S)-3-(3-((1-amino-3,3-difluorocyclopentyl)methoxy)-4-cyano-5-(methylthio)phenyl)imidazo[1,2-a]pyridine-5-carbonitrile] |  |  | 20.1 | 67 |  |  |  |
| COc1cccc2ncc(-c3cc(OCC4(N)CCCCC4)c(C#N)c(SC)c3)n12 [Example 29, 2-((1-Aminocyclohexyl)methoxy)-4-(5-methoxyimidazo[1,2-a]pyridin-3-yl)-6 (methylthio)benzonitrile] | 2.4 | 11.4 | 29.1 | 75 | 2.9 |  |  |
| CC[C@@H]1CCC[C@@]1(N)COc1cc(-c2cnc3cccc(OC)n23)cc(SC)c1C#N (mixture of isomers) [Example 9, 2-(((1S,2R)-1-Amino-2-ethylcyclopentyl)methoxy)-4-(5-methoxyimidazo[1,2-a]pyridin-3-yl)-6-(methylthio)benzonitrile and 2-(((1R,2S)-1-amino-2-ethylcyclopentyl)methoxy)-4-(5-methoxyimidazo[1,2-a]pyridin-3-yl)-6-(methylthio)benzonitrile] |  |  | 5.3 | 12 |  |  |  |
| CSc1cc(-c2cnc3ccc(N(C)C)c(C#N)n23)cc(OCC2(N)CCCC2)c1C#N [Example 43, 3-(3-((1-Aminocyclopentyl)methoxy)-4-cyano-5-(methylthio)phenyl)-6-(dimethylamino)imidazo[1,2-a]pyridine-5-carbonitrile] | 0.2 | 1.1 | 0.6 | 2 | 0.4 |  |  |
| CSc1cc(-c2cnc3cccc(C#N)n23)cc(OC[C@@]2(N)CCCC(C)(C)C2)c1C#N (mixture of isomers) [Example 14, (R)-3-(3-((1-Amino-3,3-dimethylcyclohexyl)methoxy)-4-cyano-5-(methylthio)phenyl)imidazo[1,2-a]pyridine-5-carbonitrile and (S)-3-(3-((1-amino-3,3-dimethylcyclohexyl)methoxy)-4-cyano-5-(methylthio)phenyl)imidazo[1,2-a]pyridine-5-carbonitrile] | 0.6 | 1.2 | 13.7 | 45 | 1.5 |  |  |
| CC[C@@H]1CCC[C@@]1(N)COc1cc(-c2cnc3cccc(C#N)n23)cc(SC)c1C#N (racemic) [Example 7, 3-(3-(((1S,2R)-1-Amino-2-ethylcyclopentyl)methoxy)-4-cyano-5-(methylthio)phenyl)imidazo[1,2-a]pyridine-5-carbonitrile and 3-(3-(((1R,2S)-1-amino-2-ethylcyclopentyl)methoxy)-4-cyano-5-(methylthio)phenyl)imidazo[1,2-a]pyridine-5-carbonitrile] | 0.5 | 1.8 | 1.5 | 5 | 0.8 |  |  |
| COCC1CCC[C@@](N)(COc2cc(-c3cnc4ccccn34)cc(SC)c2C#N)C1 (mixture of isomers) [Example 31, 2-(((1S)-1-Amino-3-(methoxymethyl)cyclohexyl)methoxy)-4-(imidazo[1,2-a]pyridin-3-yl)-6-(methylthio)benzonitrile and 2-(((1R)-1-amino-3-(methoxymethyl)-cyclohexyl)methoxy)-4-(imidazo[1,2-a]pyridin-3-yl)-6-(methylthio)benzonitrile] | 0.7 | 4.8 |  |  | 1.6 | 13.8 | 36 |
| CC[C@H]1CCC[C@@](N)(COc2cc(-c3cnc4cccc(C#N)n34)cc(SC)c2C#N)C1 (racemic) [Example 18, 3-(3-(((1S,3S)-1-Amino-3-ethylcyclohexyl)methoxy)-4-cyano-5-(methylthio)phenyl)imidazo[1,2-a]pyridine-5-carbonitrile and 3-(3-(((1R,3R)-1-amino-3-ethylcyclohexyl)methoxy)-4-cyano-5-(methylthio)phenyl)imidazo[1,2-a]pyridine-5-carbonitrile] | 0.1 | 1 | 1.1 | 5 | 0.6 |  |  |
| CC[C@@H]1CCC[C@](N)(COc2cc(-c3cnc4cccc(OC)n34)cc(OC)c2C#N)C1 [Example 16, 2-(((1R,3R)-1-Amino-3-ethylcyclohexyl)methoxy)-6-methoxy-4-(5-methoxyimidazo[1,2-a]pyridin-3-yl)benzonitrile and 2-(((16,36)-1-Amino-3-ethylcyclohexyl)methoxy)-6-methoxy-4-(5-methoxyimidazo[1,2-a]pyridin-3-yl)benzonitrile] |  |  | 4.8 | 14 |  |  |  |
